Data taken from patent US20200108032A1, “USE OF ISOFERULIC ACID, ISOFERULIC ACID-CONTAINING TRADITIONAL CHINESE MEDICINE EXTRACT AND CIMICIFUGAE RHIZOMA” (BEIJING DITAN HOSPITAL, CAPITAL MEDICAL UNIVERSITY, priority 2017, published 2020).

Test system: mouse model of ConA hepatitis
Experiment: Serum ALT and AST in mouse model of ConA hepatitis
Format: in vivo, C57BL/6 mice
Conditions: serum 10 hours after ConA 15 mg/kg i.v.; doses as Experimental Example 1; MEAN ± SEM
Protocol: The test materials and animals were the same as those in Experimental Example 1.
Grouping: C57BL/6 mice, male, 18-20 g, after 1 day of adaptive breeding, the mice were randomly divided into 6 groups: normal control group; ConA model group, Cimicifugae rhizoma compatibility group, Cimicifugae rhizoma group, Cimicifugae rhizoma total phenolic acid group and isoferulic acid group.
Model preparation and drug administration: except the normal control group, mice were injected intravenously once at a dose of ConA 15 mg/kg. The dosages of each drug group were the same as those of Experimental Example 1.
(1) The effects of each drug group on serum ALT and AST of ConA mice were examined. Eight mice in each group were sacrificed under anesthesia 10 hours after ConA injection. Peripheral blood was taken and serum was separated to detect ALT and AST.

COc1ccc(C=CC(=O)O)cc1O [isoferulic acid, 3-hydroxy-4-methoxycinnamic acid]
ALT: 3573 ± 1314 U/L | AST: 4351 ± 1588 U/L
